Tests used:
Assay in all cases: relative viability (nuclei count vs DMSO), 5 days (fraction); higher = more cells survive
BEN = tested on: BEN
Procedure, shortened: (§1)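 After 5 days of treatment, lung cancer cells in 1536-well plates were fixed and stained in a single step (final 0.05% Triton X-100, 1% formaldehyde, 1 ug/ml Hoechst) and their nuclei counted on 4× images. Treatment had been applied by pin tool the day after seeding as one drug alone or as a fixed anchor-drug dose with five library-drug doses (not always all listed) in √10 steps. Relative viability is the nuclei count of treated wells divided by that of vehicle wells, and values are medians of duplicate plates.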

CAL-12T = tested on: CAL-12T
Procedure, shortened: as §1

COR-L 105 = tested on: COR-L 105
Procedure, shortened: as §1

COR-L23 = tested on: COR-L23
Procedure, shortened: as §1

HARA = tested on: HARA
Procedure, shortened: as §1

HCC-15 = tested on: HCC-15
Procedure, shortened: as §1

HCC-366 = tested on: HCC-366
Procedure, shortened: as §1

HCC-44 = tested on: HCC-44
Procedure, shortened: as §1

HCC-827 = tested on: HCC-827
Procedure, shortened: as §1

HOP-62 = tested on: HOP-62
Procedure, shortened: as §1

LC-2-ad = tested on: LC-2-ad
Procedure, shortened: as §1

LCLC-97TM1 = tested on: LCLC-97TM1
Procedure, shortened: as §1

LU99A = tested on: LU99A
Procedure, shortened: as §1

LXF-289 = tested on: LXF-289
Procedure, shortened: as §1

NCI-H1993 = tested on: NCI-H1993
Procedure, shortened: as §1

NCI-H2009 = tested on: NCI-H2009
Procedure, shortened: as §1

NCI-H2087 = tested on: NCI-H2087
Procedure, shortened: as §1

NCI-H2126 = tested on: NCI-H2126
Procedure, shortened: as §1

NCI-H2170 = tested on: NCI-H2170
Procedure, shortened: as §1

NCI-H727 = tested on: NCI-H727
Procedure, shortened: as §1

PC-14 = tested on: PC-14
Procedure, shortened: as §1

PC-3 [JPC-3] = tested on: PC-3 [JPC-3]
Procedure, shortened: as §1

SK-MES-1 = tested on: SK-MES-1
Procedure, shortened: as §1

For Cc1cnc(-c2cnc(NCCNc3ccc(C#N)cn3)nc2-c2ccc(Cl)cc2Cl)[nH]1 + Cc1cc(Nc2cc(N3CCN(C)CC3)nc(Sc3ccc(NC(=O)C4CC4)cc3)n2)n[nH]1 [Tozasertib] (partner 0.1 µM), the relative viability (BEN; first compound 0.08 µM) was 0.517, the relative viability (BEN; first compound 0.253 µM) was 0.609 and the relative viability (BEN; first compound 0.8 µM) was 0.476. The relative viability (BEN; first compound 2.53 µM) was 0.52, the relative viability (CAL-12T; first compound 0.08 µM) was 0.346 and the relative viability (CAL-12T; first compound 0.253 µM) was 0.302. The relative viability (CAL-12T; first compound 0.8 µM) was 0.234, the relative viability (CAL-12T; first compound 2.53 µM) was 0.211 and the relative viability (COR-L 105; first compound 0.08 µM) was 0.349. It also gave a relative viability (COR-L 105; first compound 0.253 µM) of 0.327, a relative viability (COR-L 105; first compound 0.8 µM) of 0.346 and a relative viability (COR-L 105; first compound 2.53 µM) of 0.298. It also gave a relative viability (COR-L23; first compound 0.08 µM) of 0.205, a relative viability (COR-L23; first compound 0.253 µM) of 0.181 and a relative viability (COR-L23; first compound 0.8 µM) of 0.164. It also gave a relative viability (COR-L23; first compound 2.53 µM) of 0.109, a relative viability (HARA; first compound 0.08 µM) of 0.116 and a relative viability (HARA; first compound 0.253 µM) of 0.113. For the same compound, the relative viability (HARA; first compound 0.8 µM) was 0.116, the relative viability (HARA; first compound 2.53 µM) was 0.1 and the relative viability (HCC-15; first compound 0.08 µM) was 0.346. For the same compound, the relative viability (HCC-15; first compound 0.253 µM) was 0.373, the relative viability (HCC-15; first compound 0.8 µM) was 0.473 and the relative viability (HCC-15; first compound 2.53 µM) was 0.279. It also gave a relative viability (HCC-366; first compound 0.08 µM) of 0.0773, a relative viability (HCC-366; first compound 0.253 µM) of 0.0701 and a relative viability (HCC-366; first compound 0.8 µM) of 0.071. The relative viability (HCC-366; first compound 2.53 µM) was 0.0493, the relative viability (HCC-44; first compound 0.08 µM) was 1.04 and the relative viability (HCC-44; first compound 0.253 µM) was 0.746. For the same compound, the relative viability (HCC-44; first compound 0.8 µM) was 0.676, the relative viability (HCC-44; first compound 2.53 µM) was 0.781 and the relative viability (HCC-827; first compound 0.08 µM) was 0.432. It also gave a relative viability (HCC-827; first compound 0.8 µM) of 0.44, a relative viability (HCC-827; first compound 2.53 µM) of 0.407 and a relative viability (HOP-62; first compound 0.08 µM) of 0.321. The relative viability (HOP-62; first compound 0.253 µM) was 0.353, the relative viability (HOP-62; first compound 0.8 µM) was 0.36 and the relative viability (HOP-62; first compound 2.53 µM) was 0.288. The relative viability (LC-2-ad; first compound 0.08 µM) was 0.439, the relative viability (LC-2-ad; first compound 0.253 µM) was 0.392 and the relative viability (LC-2-ad; first compound 2.53 µM) was 0.477. It also gave a relative viability (LCLC-97TM1; first compound 0.08 µM) of 0.224, a relative viability (LCLC-97TM1; first compound 0.8 µM) of 0.171 and a relative viability (LCLC-97TM1; first compound 2.53 µM) of 0.223. It also gave a relative viability (LU99A; first compound 0.08 µM) of 0.257, a relative viability (LU99A; first compound 0.253 µM) of 0.301 and a relative viability (LU99A; first compound 0.8 µM) of 0.256. It also gave a relative viability (LU99A; first compound 2.53 µM) of 0.243, a relative viability (LXF-289; first compound 0.08 µM) of 0.223 and a relative viability (LXF-289; first compound 0.253 µM) of 0.155. The relative viability (LXF-289; first compound 0.8 µM) was 0.18, the relative viability (LXF-289; first compound 2.53 µM) was 0.161 and the relative viability (NCI-H1993; first compound 0.08 µM) was 0.583. The relative viability (NCI-H1993; first compound 0.253 µM) was 0.558, the relative viability (NCI-H1993; first compound 0.8 µM) was 0.573 and the relative viability (NCI-H1993; first compound 2.53 µM) was 0.538. It also gave a relative viability (NCI-H2009; first compound 0.08 µM) of 0.734, a relative viability (NCI-H2009; first compound 0.253 µM) of 0.695 and a relative viability (NCI-H2009; first compound 0.8 µM) of 0.794. It also gave a relative viability (NCI-H2009; first compound 2.53 µM) of 0.452, a relative viability (NCI-H2087; first compound 0.08 µM) of 0.249 and a relative viability (NCI-H2087; first compound 0.253 µM) of 0.203. The relative viability (NCI-H2087; first compound 0.8 µM) was 0.211, the relative viability (NCI-H2087; first compound 2.53 µM) was 0.128 and the relative viability (NCI-H2126; first compound 0.08 µM) was 1.02. For the same compound, the relative viability (NCI-H2126; first compound 0.253 µM) was 0.802, the relative viability (NCI-H2126; first compound 0.8 µM) was 0.844 and the relative viability (NCI-H2126; first compound 2.53 µM) was 0.837. The relative viability (NCI-H2170; first compound 0.08 µM) was 0.73, the relative viability (NCI-H2170; first compound 0.253 µM) was 0.566 and the relative viability (NCI-H2170; first compound 0.8 µM) was 0.713. The relative viability (NCI-H2170; first compound 2.53 µM) was 0.699, the relative viability (NCI-H727; first compound 0.08 µM) was 0.639 and the relative viability (NCI-H727; first compound 0.253 µM) was 0.497. For the same compound, the relative viability (NCI-H727; first compound 0.8 µM) was 0.603, the relative viability (NCI-H727; first compound 2.53 µM) was 0.422 and the relative viability (PC-14; first compound 0.08 µM) was 0.611. For the same compound, the relative viability (PC-14; first compound 0.253 µM) was 0.47, the relative viability (PC-14; first compound 0.8 µM) was 0.551 and the relative viability (PC-14; first compound 2.53 µM) was 0.549. It also gave a relative viability (PC-3 [JPC-3]; first compound 0.08 µM) of 0.872, a relative viability (PC-3 [JPC-3]; first compound 0.253 µM) of 0.849 and a relative viability (PC-3 [JPC-3]; first compound 0.8 µM) of 0.819. For the same compound, the relative viability (PC-3 [JPC-3]; first compound 2.53 µM) was 0.719, the relative viability (SK-MES-1; first compound 0.08 µM) was 0.964 and the relative viability (SK-MES-1; first compound 0.253 µM) was 0.854. For the same compound, the relative viability (SK-MES-1; first compound 0.8 µM) was 0.999 and the relative viability (SK-MES-1; first compound 2.53 µM) was 0.861.

— the supplement of paper PMC10307832
